# Measurements taken from patent publication US9187455B2, “Substituted pyridazines as PDE10A inhibitors” (Hoffmann-La Roche Inc., priority 2009, dated 2015).
# Molecular target: T1, PDE10A2 (Homo sapiens, UniProt Q9Y233)
# T1 construct: residues serine 449 to aspartate 789; His6 (H6) with Gateway linker and thrombin cleavage site (N, cleaved yes); made in house; host or cells: E. coli BL21(DE3) pLysS
# Experiment: PDE10A2 Scintillation Proximity Assay (SPA), [3H]-cGMP hydrolysis
# Type: biochemical
# Conditions: catalytic domain of human PDE10A2 (S449-D789), 0.25 nM enzyme, 50 nM cGMP + 50 nM [3H]-cGMP, 30 minutes at room temperature; read-out: PDE10A2 inhibition IC50
# Experimental: The following tests were carried out in order to determine the activity of the compounds of the present invention. PDE10 activity of the compounds of the present invention is determined using a Scintillation Proximity Assay (SPA)-based method similar to the one previously described (Fawcett, L. et al., ProcNatl Acad Sci USA (2000) 97(7):3702-3707).
# PDE10A1 and PDE10A2 are two splice variants of PDE10A. There are these 2 splice variants known, which differ in the N-terminal part of the protein. The catalytic domains of PDE10A1 and PDE10A2 are identical. The assay for PDE10A2 described below is therefore also representative for PDE10A1 and also for PDE10A in general.
# The PDE10A2 assay was performed in a two step procedure in 96-well micro titer plates. The reaction mixture of 80 μl contained 20 mM HEPES/10 mM MgCl2/[…] (pH 7.5), 50 nM cGMP (Sigma) and 50 nM [^3H]-cGMP (GE Healthcare), 0.25 nM PDE10A2 with or without a specific test compound. A range of concentrations of the potential inhibitor was used to generate data for calculating the concentration of inhibitor resulting in 50% of the effect (e.g. IC50, the concentration of the competitor inhibiting PDE10A2 activity 50%). Non-specific activity was tested without the enzyme. The reaction was initiated by addition of the substrate solution (cGMP and [^3H]-cGMP) and allowed to progress for 30 minutes at room temperature. The reaction was terminated by transferring 50 μl of the reaction mixture into an OptiPlate (Perkin Elmer) containing 25 μl of YSi-SPA scintillation beads (GE Healthcare) in 18 mM zinc sulphate solution (stop reagent). After 1 h under shaking, the plate was centrifuged one minute at 1000 rpm to allow beads to settle. Afterwards, radioactive counts were measured on a Perkin Elmer TopCount Scintillation plate reader.
# The catalytic domain of human PDE10A2, residues serine 449 to aspartate 789, was amplified by PCR using cDNA (Origene) and the oligonucleotides 5′-GGGGACAAGTTTGT […]-3′ (with AttB1 recombination site in bold and thrombin protease cleavage site in italics) and 5′-[…]-3′ (with AttB2 recombination site in bold) which conferred Gateway recombination sites. The PCR product was used in a BP recombination reaction with pDONR221 to generate pENTR Thm-PDE10A2(S449-D789) which was DNA sequence verified and then used in an LR recombination reaction with a Gateway modified version of pET11a. The resulting expression vector, placT7.2H6-(gwl)-Thm-PDE10A2(S449-D789) was DNA sequence confirmed and transformed into E. coli strain BL21(DE3) pLysS and recombinant protein was produced in TB medium at 20° C. by induction to a final IPTG concentration of 0.5 mM at an optical density of 1.0 at 600 nm for 20 hours. About 30% of the protein was in the soluble fraction of the cell homogenate. The protein was purified using sequential chromatography on Ni-NTA and HiTrapQ/HiTrapS. After thrombin digest at room temperature a HiTrapChelating/HiTrap Benzamindin chromatography removed impurities, uncleaved protein and thrombin. Final purification of PDE10A2(S449-D789) was performed on a Superdex 75 size exclusion chromatography equilibrated with 25 mM HEPES pH 8.4, 0.15 M NaCl. The yield of pure protein was 2 mg/liter of culture volume is relatively low. The purity of the protein was >95%, monomeric and monodisperse as shown by SDS-PAGE, HPLC and analytical ultracentrifugation.
# T1 sequence (Q9Y233 715-1055): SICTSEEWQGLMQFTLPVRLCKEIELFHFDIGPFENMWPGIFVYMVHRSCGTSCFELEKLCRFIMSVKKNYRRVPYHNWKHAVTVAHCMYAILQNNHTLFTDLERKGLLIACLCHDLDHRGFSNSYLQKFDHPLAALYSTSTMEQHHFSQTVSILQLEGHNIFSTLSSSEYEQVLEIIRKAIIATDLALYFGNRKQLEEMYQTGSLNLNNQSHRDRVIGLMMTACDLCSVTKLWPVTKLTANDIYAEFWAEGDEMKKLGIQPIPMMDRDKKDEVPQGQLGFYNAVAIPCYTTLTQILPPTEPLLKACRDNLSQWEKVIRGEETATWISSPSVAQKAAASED
row,Compound,IC50 [nM]
1,"O=c1ccn(-c2ccncc2)nc1-c1ccnn1-c1cccc(Cl)n1 [Example 1, 3-[2-(6-Chloro-pyridin-2-yl)-2H-pyrazol-3-yl]-1-pyridin-4-yl-1H-pyridazin-4-one]",8100
2,"N#Cc1cccc(-n2nccc2-c2nn(-c3ccncc3)ccc2=O)c1 [Example 3, 3-[5-(4-Oxo-1-pyridin-4-yl-1,4-dihydro-pyridazin-3-yl)-pyrazol-1-yl]-benzonitrile]",319
3,"O=c1ccn(-c2ccncc2)nc1-c1ccnn1-c1ccc2c(c1)OCCO2 [Example 15, 3-[2-(2,3-Dihydro-benzo[1,4]dioxin-6-yl)-2H-pyrazol-3-yl]-1-pyridin-4-yl-1H-pyridazin-4-one]",80
4,"O=C(O)c1cccc(-n2nccc2-c2nn(-c3ccncc3)ccc2=O)c1 [Example 5, 3-[5-(4-Oxo-1-pyridin-4-yl-1,4-dihydro-pyridazin-3-yl)-pyrazol-1-yl]-benzoic acid]",899
5,"O=c1ccn(-c2cncc(C(F)(F)F)c2)nc1-c1ccnn1-c1ccnc2ccccc12 [Example 71, 3-(2-Quinolin-4-yl-2H-pyrazol-3-yl)-1-(5-trifluoromethyl-pyridin-3-yl)-1H-pyridazin-4-one]",56
6,"O=c1ccn(-c2ccncc2)nc1-c1ccnn1-c1cccc(Cl)c1 [Example 18, 3-[2-(3-Chloro-phenyl)-2H-pyrazol-3-yl]-1-pyridin-4-yl-1H-pyridazin-4-one]",140
7,"O=c1ccn(-c2cncc(C(F)(F)F)c2)nc1-c1ccnn1-c1cccc(Cl)c1 [Example 67, 3-[2-(3-Chloro-phenyl)-2H-pyrazol-3-yl]-1-(5-trifluoromethyl-pyridin-3-yl)-1H-pyridazin-4-one]",56
8,"O=c1ccn(-c2ccnc(C(F)(F)F)c2)nc1-c1ccnn1-c1cccc(Cl)c1 [Example 95, 3-[2-(3-Chloro-phenyl)-2H-pyrazol-3-yl]-1-(2-trifluoromethyl-pyridin-4-yl)-1H-pyridazin-4-one]",73
9,"N#Cc1cc(-n2ccc(=O)c(-c3ccnn3-c3cccc(F)c3)n2)ccn1 [Example 44, 4-{3-[2-(3-Fluoro-phenyl)-2H-pyrazol-3-yl]-4-oxo-4H-pyridazin-1-yl}-pyridine-2-carbonitrile]",2290
10,"O=c1ccn(-c2cncc(Cl)c2)nc1-c1ccnn1-c1ccnc2cc(Cl)ccc12 [Example 70, 1-(5-Chloro-pyridin-3-yl)-3-[2-(7-chloro-quinolin-4-yl)-2H-pyrazol-3-yl]-1H-pyridazin-4-one]",253

# Other lines, results leading:
row,IC50 [nM],Compound
1,178,"O=c1ccn(-c2cncc(C(F)(F)F)c2)nc1-c1ccnn1-c1ccccc1F [Example 68, 3-[2-(2-Fluoro-phenyl)-2H-pyrazol-3-yl]-1-(5-trifluoromethyl-pyridin-3-yl)-1H-pyridazin-4-one]"
2,115,"O=c1ccn(-c2ccncc2)nc1-c1ccnn1-c1ccccc1F [Example 4, 3-[2-(2-Fluoro-phenyl)-2H-pyrazol-3-yl]-1-pyridin-4-yl-1H-pyridazin-4-one]"
3,46,"Cc1cc(-n2ccc(=O)c(-c3ccnn3-c3cccc4cnccc34)n2)ccn1 [Example 85, 3-(2-Isoquinolin-5-yl-2H-pyrazol-3-yl)-1-(2-methyl-pyridin-4-yl)-1H-pyridazin-4-one]"
4,20,"O=c1ccn(-c2ccc3ncccc3c2)nc1-c1ccnn1-c1ccccc1F [Example 102, 3-[2-(2-Fluoro-phenyl)-2H-pyrazol-3-yl]-1-quinolin-6-yl-1H-pyridazin-4-one]"
5,15,"CS(=O)(=O)c1cc(-n2ccc(=O)c(-c3ccnn3-c3cccc4ccccc34)n2)ccn1 [Example 16, 1-(2-Methanesulfonyl-pyridin-4-yl)-3-(2-naphthalen-1-yl-2H-pyrazol-3-yl)-1H-pyridazin-4-one]"
6,12,"Cc1cc(-n2ccc(=O)c(-c3ccnn3-c3ccnc4ccccc34)n2)ccn1 [Example 79, 1-(2-Methyl-pyridin-4-yl)-3-(2-quinolin-4-yl-2H-pyrazol-3-yl)-1H-pyridazin-4-one]"
